The results in this text go back to patent US20240174727A1, “LONG-ACTING NATRIURETIC PEPTIDES AND USES THEREOF” (Eli Lilly and Company, priority 2022, published 2024).

Read-outs that look alike come from different tables or passages of the source. Numbered stars: 1 amine (or outer) side, 2 acyl side, 3 side chain; on linkers, the order of the positions; unused ones are H or OH. Bridge positions count the residues as written; N and C are the ends. Square brackets hold non-standard residues; d marks the D form. * marks the point of attachment. C20 diacid = O=C(O)CCCCCCCCCCCCCCCCCCC(=O)*; γGlu = O=C(O)[C@H](CCC(=O)[*:2])N[*:1]; 4Pal = N[C@@H](Cc1ccncc1)C(=O)O; Dap = NC[C@H](N)C(=O)O; AEEA = NCCOCCOCC(=O)O; CH2 = C([*:1])[*:2]; βAla = NCCC(=O)O

In one assay the target is T1, rat NPRA (Rattus norvegicus, UniProt P18910).
T1 construct: Full-Length cDNA Cloning and Generation of Cell Lines Overexpressing Natriuretic Peptide Receptors (NPRs); expressed in transfected cells; host or cells: Jump-in T-Rex HEK293 cells, pJTI R4 CMV-TO MCS pA vector, tetracycline induction
T1 sequence (P18910 29-1057): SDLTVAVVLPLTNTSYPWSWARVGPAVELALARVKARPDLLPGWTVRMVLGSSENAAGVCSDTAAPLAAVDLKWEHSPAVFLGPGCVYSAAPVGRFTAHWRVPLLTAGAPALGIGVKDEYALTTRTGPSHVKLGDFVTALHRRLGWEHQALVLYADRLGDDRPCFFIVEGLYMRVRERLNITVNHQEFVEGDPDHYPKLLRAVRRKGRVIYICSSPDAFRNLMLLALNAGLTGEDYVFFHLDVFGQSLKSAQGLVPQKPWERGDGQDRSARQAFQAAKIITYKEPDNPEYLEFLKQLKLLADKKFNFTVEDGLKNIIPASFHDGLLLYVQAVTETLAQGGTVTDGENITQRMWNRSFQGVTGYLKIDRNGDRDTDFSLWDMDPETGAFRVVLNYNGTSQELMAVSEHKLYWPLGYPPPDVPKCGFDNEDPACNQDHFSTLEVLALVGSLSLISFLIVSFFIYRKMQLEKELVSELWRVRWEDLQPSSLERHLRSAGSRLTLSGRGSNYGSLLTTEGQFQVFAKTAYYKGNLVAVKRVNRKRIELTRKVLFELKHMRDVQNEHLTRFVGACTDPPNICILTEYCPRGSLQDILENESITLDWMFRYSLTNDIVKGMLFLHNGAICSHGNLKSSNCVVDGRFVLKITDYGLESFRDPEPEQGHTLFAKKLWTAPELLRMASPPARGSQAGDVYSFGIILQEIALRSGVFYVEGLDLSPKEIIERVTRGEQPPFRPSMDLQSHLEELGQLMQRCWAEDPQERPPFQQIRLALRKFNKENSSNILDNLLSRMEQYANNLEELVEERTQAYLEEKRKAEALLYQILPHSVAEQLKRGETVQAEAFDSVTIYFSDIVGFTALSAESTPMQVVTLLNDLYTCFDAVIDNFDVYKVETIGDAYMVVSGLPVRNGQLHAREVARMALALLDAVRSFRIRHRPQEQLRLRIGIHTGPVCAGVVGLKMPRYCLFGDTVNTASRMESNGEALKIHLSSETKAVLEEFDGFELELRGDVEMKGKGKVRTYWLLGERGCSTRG
As to the kind of experiment: Rat NPRA cGMP activity assay (HTRF) in HEK293 cells overexpressing NPRA. Format: cell-based. Put shortly:
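cGMP measured by HTRF and scaled between buffer (minimum) and 100 nM amidated rat ANP (maximum). Polypeptides in 10-fold steps from 10 μM to 1 pM, 0.5% DMSO, 0.5 mM IBMX, 40 min at room temperature, on induced NPRA-overexpressing HEK293 cells.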
On the technique in general: Time-resolved FRET reads energy transfer from a long-lived donor to a nearby acceptor.

Another assay deals with T2, human NPRA (Homo sapiens, UniProt P16066).
T2 construct: Full-Length cDNA Cloning and Generation of Cell Lines Overexpressing Natriuretic Peptide Receptors (NPRs); expressed in transfected cells; host or cells: Jump-in T-Rex HEK293 cells, pJTI R4 CMV-TO MCS pA vector, tetracycline induction
T2 sequence (P16066 33-1061): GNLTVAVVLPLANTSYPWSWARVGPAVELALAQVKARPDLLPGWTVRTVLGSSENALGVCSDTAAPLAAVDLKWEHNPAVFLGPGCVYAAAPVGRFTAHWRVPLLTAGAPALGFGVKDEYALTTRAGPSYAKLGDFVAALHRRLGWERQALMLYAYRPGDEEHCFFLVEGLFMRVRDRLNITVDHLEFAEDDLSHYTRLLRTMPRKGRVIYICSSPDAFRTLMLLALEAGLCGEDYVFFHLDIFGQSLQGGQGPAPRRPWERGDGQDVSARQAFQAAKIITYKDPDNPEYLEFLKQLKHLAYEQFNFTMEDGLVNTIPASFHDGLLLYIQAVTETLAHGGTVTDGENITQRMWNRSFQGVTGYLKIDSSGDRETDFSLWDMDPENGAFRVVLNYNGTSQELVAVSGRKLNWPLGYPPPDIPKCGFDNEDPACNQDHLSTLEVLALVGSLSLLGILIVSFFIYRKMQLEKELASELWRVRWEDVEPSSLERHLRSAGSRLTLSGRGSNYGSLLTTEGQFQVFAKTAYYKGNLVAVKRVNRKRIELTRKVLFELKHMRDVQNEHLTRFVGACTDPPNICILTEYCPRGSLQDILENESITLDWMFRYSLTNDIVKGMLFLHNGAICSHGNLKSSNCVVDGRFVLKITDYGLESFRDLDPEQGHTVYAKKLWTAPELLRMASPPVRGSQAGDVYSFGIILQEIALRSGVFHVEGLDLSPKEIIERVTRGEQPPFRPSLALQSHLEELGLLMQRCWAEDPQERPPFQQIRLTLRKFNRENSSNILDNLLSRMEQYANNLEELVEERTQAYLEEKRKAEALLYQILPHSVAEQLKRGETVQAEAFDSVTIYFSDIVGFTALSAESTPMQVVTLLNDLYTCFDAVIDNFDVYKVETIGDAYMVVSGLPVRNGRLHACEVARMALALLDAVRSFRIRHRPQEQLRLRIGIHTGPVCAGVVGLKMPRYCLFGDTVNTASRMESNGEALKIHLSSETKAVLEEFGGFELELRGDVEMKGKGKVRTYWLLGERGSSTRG
In words: Human NPRA cGMP activity assay (HTRF) in HEK293 cells overexpressing NPRA. It is filed as cell-based. To be noted: assay buffer with 0.1% casein. Here is the method: All sequences were verified by full-length sequencing performed by ACGT DNA Sequencing Services (Wheeling, IL). The target cDNA was cloned into pJTI R4 CMV-TO MCS pA vector and then co-transfected with pJT1R4 Int vector into Jump-in™ T-Rex™ HEK293 cells for mammalian inducible expression using Jump-in™ T-Rex™ HEK293 kit and Lipofectamine LTX and Plus Reagent following manufacturer's protocols, as briefly described below.
Jump-in™ T-Rex™ HEK293 cells were plated in a BioCOAT® poly-D-lysine coated 6-well plate (Becton Dickinson, cat no. 354413) at 1 million cells/well in 2 mL culture medium and incubated for 18 h at 37° C. and 5% CO2 to 50-70% confluence. A cDNA mix was made in a 50 mL tube by adding 1.5 μg target cDNA, 1.5 μg pJT1R4 Int vector, 3 μL Plus Reagent, and 300 μL Opti-MEM I sequentially into the tube. A reagent mix was made in a separate 50 mL tube by adding 7.5 μL Lipofectamine LTX into 300 μL Opti-MEM I. The mixtures were incubated for 5 min at room temperature. The cDNA mix was then transferred into the reagent mix, mixed well, and incubated for additional 30 min at room temperature. A 500 μL of cDNA/Lipofectamine complex was then transferred to the wells of the cell plate in which the culture medium was changed to 2 mL of transfection medium containing DMEM with 4.5 g/L D-glucose supplemented with 10% FBS-HI and 20 mM HEPES. Transfected cells were cultured for 48 h in an incubator at 37° C. and 5% CO2. A subclone or pool from each overexpressing cell line was maintained in culture medium with the addition of 2 mg/mL G418 sulfate for the clone selection based on its built-in resistance to G418 sulfate for at least 3 weeks with medium changed every 2-3 days.
NPRs were overexpressed in T-Rex™ HEK293 cells following the induction with 300 ng/mL tetracycline in culture medium for 48 h. Induced cell lines in an exponential growth phase were treated with 0.05% trypsin-EDTA for a few seconds at room temperature, harvested in cell medium containing FBS to neutralize the trypsin, counted, and cryopreserved at the density of 2 million cells/mL in cell preservation solution containing FBS-HI with 5% DMSO. Cryopreserved cells were stored at −80° C. for a few days prior to transferring to a liquid nitrogen tank. Induced cell lines were then used for suspension assays to measure the activity of polypeptides to stimulate cGMP production in cGMP assays or for the preparation of cell membranes to measure the binding activity of polypeptides in competitive radioligand binding assays, as described below.
Test polypeptides were added starting at 10 μM concentration and at 10-fold decreasing concentrations to obtain 8-point concentration-response curves (i.e., 10 μM to 1 pM). The quantity of cGMP generated was detected using HTRF® technology and normalized to maximum amount produced by 100 nM amidated rat ANP and the minimum amount produced by assay buffer. Detailed steps are outlined below.
Stock solutions of test polypeptides (2 mM) dissolved in DMSO were first diluted 100-fold in assay buffer containing HBSS with Ca^2+ and Mg^2+, 5 mM HEPES, 0.5 mM IBMX, and 0.1% BSA or 0.1% casein (pH 7.4). The polypeptides were further serially diluted in 1:10 dilution steps in assay buffer containing 0.1% BSA or 0.1% casein to generate 8-point 2× working stock solutions ranging from 20 μM to […].
A 10 μL cell suspension containing 4000 cells was plated in Costar® half-area white opaque 96-well plates (Corning, cat no. 3693). Then 10 μL of assay buffer (basal activity), 200 nM of amidated rat ANP (maximum activity) or 2× working stock solutions of test polypeptides were transferred into the plate. Final concentration of DMSO in each well was 0.5%. The plate was shaken for 15 sec and then incubated for 40 min at room temperature.
The cGMP generated was measured using cGMP kit following the manufacturer's directions, as described below.

Setting [1] is: assay buffer with 0.1% casein, read-out: cGMP Assay (EC50, pM) w/Casein rNPRA.
Where [2] appears, read: read-out: cGMP Assay (EC50, pM) w/Casein hNPRA.

With “{C20 diacid-γGlu}-EKEKEKGEKPRSSCFGG[Dap]IDRIGHQSGLGCPSFRHGSPSSGAPPPS-NH2 (linker 14-30 via CH2) [Example 139]”, the EC50 amounted to 200000 pM on rat NPRA (setting [1]) and 19700 pM on human NPRA (setting [2]).

On to `CC[C@H](C)[C@@H]1NC(=O)[C@H](CCCNC(=N)N)NC(=O)[C@H](CC(=O)O)NC(=O)[C@H]([C@@H](C)CC)NC(=O)[C@H](CCCNC(=N)N)NC(=O)[C@H](CCCCN)NC(=O)CNC(=O)[C@H](Cc2ccccc2)NC(=O)[C@@H](NC(=O)[C@H](CO)NC(=O)[C@H](CO)NC(=O)[C@H](CCCNC(=N)N)NC(=O)[C@H](CCCNC(=N)N)NC(=O)[C@H](Cc2ccncc2)NC(=O)[C@H](CO)NC(=O)COCCOCCNC(=O)COCCOCCNC(=O)COCCOCCNC(=O)COCCOCCNC(=O)COCCOCCNC(=O)COCCOCCNC(=O)CNC(=O)[C@H](CCCCN)NC(=O)[C@H](CCC(=O)O)NC(=O)[C@H](CCCCN)NC(=O)[C@H](CCC(=O)O)NC(=O)[C@H](CCCCN)NC(=O)[C@H](CCC(=O)O)NC(=O)CC[C@H](NC(=O)CCCCCCCCCCCCCCCCCCC(=O)O)C(=O)O)CSCSC[C@@H](C(=O)N2CCC[C@H]2C(=O)N[C@@H](CO)C(=O)N[C@@H](Cc2ccccc2)C(=O)N[C@@H](CCCNC(=N)N)C(=O)N[C@@H](Cc2c[nH]cn2)C(=O)NCC(=O)N[C@@H](CO)C(=O)N2CCC[C@H]2C(=O)N[C@@H](CO)C(=O)N[C@@H](CO)C(=O)NCC(=O)N[C@@H](C)C(=O)N2CCC[C@H]2C(=O)N2CCC[C@H]2C(=O)N2CCC[C@H]2C(=O)N[C@@H](CO)C(N)=O)NC(=O)CNC(=O)[C@H](CC(C)C)NC(=O)CNC(=O)[C@H](CO)NC(=O)[C@H](Cc2ccc(O)cc2)NC(=O)[C@H](Cc2c[nH]cn2)NC(=O)CNC1=O` [Example 113], for which the EC50 at rat NPRA (cGMP Assay (EC50, pM) w/BSA rNPRA, assay buffer with 0.1% BSA) was determined as 149000 pM; on human NPRA (cGMP Assay (EC50, pM) w/Casein hNPRA), 621 pM.

For `CC[C@H](C)[C@@H]1NC(=O)[C@H](CCCNC(=N)N)NC(=O)[C@H](CC(=O)O)NC(=O)[C@H]([C@@H](C)CC)NC(=O)[C@H](CCCNC(=N)N)NC(=O)CNC(=O)CNC(=O)[C@H](Cc2ccccc2)NC(=O)[C@@H](NC(=O)[C@H](CO)NC(=O)[C@H](CO)NC(=O)[C@H](CCCNC(=N)N)NC(=O)[C@H](CCCNC(=N)N)NC(=O)[C@H](Cc2ccncc2)NC(=O)[C@H](CO)NC(=O)CNC(=O)[C@H](CCCCN)NC(=O)[C@H](CCC(=O)O)NC(=O)[C@H](CCCCN)NC(=O)[C@H](CCC(=O)O)NC(=O)[C@H](CCCCN)NC(=O)[C@H](CCC(=O)O)NC(=O)CC[C@H](NC(=O)CCCCCCCCCCCCCCCCCCC(=O)O)C(=O)O)CSSC[C@@H](C(=O)N[C@@H](CC(N)=O)C(=O)N[C@@H](CO)C(=O)N[C@@H](Cc2ccccc2)C(=O)N[C@@H](CCCNC(=N)N)C(=O)N[C@@H](Cc2ccc(O)cc2)C(N)=O)NC(=O)CNC(=O)[C@H](CC(C)C)NC(=O)CNC(=O)[C@H](CO)NC(=O)[C@H](CCC(N)=O)NC(=O)[C@H](C)NC(=O)CNC1=O` [Example 11], the EC50 at rat NPRA (assay buffer with 0.1% BSA, read-out: cGMP Assay (EC50, pM) w/BSA rNPRA) was found to be 24700 pM; on human NPRA (setting [2]), 1020 pM.

Turning to “{C20 diacid-γGlu}-EKEKEKG[AEEA][AEEA][AEEA][AEEA][AEEA][AEEA]EK[βAla]RSSCFGKRIDRIGHQSGLGCPSFRHGSPSSGAPPPS-NH2 (linker 20-36 via CH2) [Example 119]”, the EC50 at rat NPRA (setting [1]) was 17900 pM; on human NPRA (setting [2]), 493 pM.

As to “{C20 diacid-γGlu}-EKEKEKGS[4Pal]RRSSCFGGRIDRIGHQSGLGCPSFRHGGKSSGAPPPS-NH2 (linker 14-30 via CH2) [Example 67]”, the results for the EC50 on rat NPRA (setting [1]) and at human NPRA (setting [2]) were 18800 pM and 1220 pM, respectively.
